What was measured:
[1] = system: Human ESCs [SHEF3]; test: Differentiation towards definitive endoderm: immunostaining and RT-PCR of endodermal markers; type: cell-based; conditions: 2 μM, feeder-free on Matrigel in mTeSR1, up to 7 days
Description: Human ESCs [SHEF3] were maintained feeder-free on Matrigel® in chemically defined mTeSR1® media and treated with 2 μM 1M for the days indicated. (A) Expression of the endodermal markers FoxA2, Sox17 and HNF4α were analysed by immunofluorescence. Treatment with compound 1M led to expression of all markers after 7 days treatment. Scale bar represents 50 μm. (B) ESCs were harvested on day 7 following treatment with 1M for the indicated days. RNA was extracted and RT-PCR analyses performed using primers selective for the genes indicated. […] (C) BIO induces differentiation towards the DE. SHEF3 ESCs were treated with 2 μM BIO for the times indicated and immunostained with antibodies towards the endodermal markers FOXA2, SOX17 and HNF4α. (D) Compound 1L also induces differentiation towards the DE. SHEF1 ESCs were treated with 2 μM 1L for the times indicated and immunostained with antibodies towards the endodermal markers FOXA2 and HNF4α.
ESCs were cultured feeder-free on Matrigel®-coated plates in mTeSR1® media, supplemented with 2 μM compound 1M for 7 days with the media being refreshed every-other day. Definitive endoderm cultures were passaged with collagenase (1 mg/ml) and plated at a ratio of 1:10 on Matrigel® in KO DMEM supplemented with glutamine, penicillin/streptomycin, NEAA, 2% (v/v) KOSR, 10 ng/ml HGF (Peprotech) and 10 ng/ml FGF4 and cultured for a further 7 days with the media being refreshed every-other day. To allow for maturation of the HLCs, 10 ng/ml oncostatin M (Peprotech) and 10^−7 dexamethasone (SIGMA) were added to the above media and the cells were cultured for an additional 7 days with fresh media every-other day.
(§1) Total RNA was isolated and purified using TRIzol Reagent (Invitrogen), following the manufacturer's instructions. All RNA samples were treated with DNase I (Ambion) before cDNA synthesis to eliminate any contaminating genomic DNA. RNA (1 μg) was reverse transcribed into cDNA using Oligo(dT)15 (Promega) and SuperScript II (Invitrogen). Gene-specific PCR was carried out using primers and annealing temperatures outlined in Table 2.
ESCs were cultured on Matrigel®-coated lummox (Greiner Bio One) trays and fixed with 4% paraformaldehyde (PFA) for 20 minutes at room temperature. Cells were permeabilised in PBST (with 0.1% Triton X-100) and blocked in 10% blocking reagent (Roche) before incubating with primary antibodies in 2% blocking reagent overnight at 4° C. After washing in PBS, cells were incubated with FITC-conjugated secondary antibodies (Vector Labs) for 3 hours at room temperature. After further washing, the cells were stained with 4,6-diamidino-2-phenylindole (DAPI) (SIGMA), washed again and mounted in MOWIOL. […]

[2] = system: Human ESCs [SHEF3]; test: Colony morphology, RT-PCR and Western blot of OCT4/NANOG in treated human ESCs; type: cell-based
Description: (§2) Human ESCs [SHEF3] were treated with the indicated concentrations of BIO or compound 1M or left untreated as a control and cultured for 7 days. (A) Images show typical colonies formed following the indicated treatments. The scale bars represent 1 mm. (B) Histogram plots of ESCs analysed by flow cytometry following immunostaining with antibodies against the pluripotency markers Tra-1-60 or SSEA4. (C) RNA was extracted from the cells and RT-PCR analyses performed using primers specific to the pluripotency genes OCT4 and NANOG and to the house-keeping gene β-ACTIN. (D) Western blot analysis was performed on protein extracted from the cells and immunoblotted with antibodies specific to Oct4. Blots were stripped and reprobed with anti-Gapdh antibodies to assess equal loading. (E) Compound 1O also induces differentiation of human ESCs. SHEF3 cells were treated with the indicated concentration of 1O for 7 days. Images show typical colony morphology. (F) Histogram plots of ESCs analysed by flow cytometry following staining with Tra-1-60 and SSEA4 antibodies. Analysis of percent positive cells and mean fluorescent intensity are indicated on the plots. (G) RT PCR analysis for the expression of OCT4 and NANOG. Bands for each of the genes were from the same gel with intervening samples removed. (H) Western blot analysis of OCT4 protein expression. Proteins bands were from the same immunoblot with intervening samples removed.
(§3) SHEF1 and SHEF3 human ESCs were obtained from the UKSCB and cultured as outlined in their protocols. Briefly, ESCs were maintained on mitomycin C-inactivated mouse embryonic fibroblast (MEF) feeder layers in KnockOut Dulbecco's modified Eagle's medium (KO DMEM) (Invitrogen) supplemented with 20% (vol/vol) KO serum replacement (KOSR; Invitrogen), 1 mM non-essential amino acids (NEAA; Invitrogen), 1 mM glutamine (Invitrogen), 0.1 mM 2-mercaptoethanol (BioRad), penicillin/streptomycin, and 4 ng/ml recombinant human FGF2 (Peprotech). Cultures were passage using 1 mg/ml collagenase at a ratio of 1:8 to 1:12 every 7 days. Cultures were transferred to a feeder-free, chemically defined culture system on ESC-qualified Matrigel® (BD) coated plates in mTeSR1® (Stem Cell Technologies) media according to Stem Cell Technologies' protocol.
as §1
Cell lysates (20 μg) were prepared, separated by SDS-PAGE and transferred to nitrocellulose as described previously (Welham et al., 1994). Immunoblotting was carried out using primary antibodies at the following dilutions: 1:5,000 anti-Oct4 (Santa Cruz Biotechnology; sc-9081); 1:2000 anti-GAPDH (sc-20357); 1:10,000 anti-phospho (Ser33/37/Thr41) β-catenin (Cell signalling Technology; CST 9561); 1:1000 anti-β-catenin (CST 9562). Anti-rabbit antibodies conjugated to horseradish peroxidise (DAKO) were used at 1:10,000 and blots were developed using ECL Advance (GE Healthcare) or ChemiGlow (Alpha Innotech) according to manufacturer's directions. Images were captured and analysed using the ImageQuant RT ECL system (GE Healthcare). Blots were stripped and reprobed as described previously (Welham et al., 1994).

[3] = system: Human ESCs [SHEF3]; test: Flow cytometry of pluripotency surface markers Tra-1-60 and SSEA4 in treated human ESCs; type: cell-based
Description: as §2, with “(A)” for “Human ESCs [SHEF3] were treated with the indicated concentrations of BIO or compound 1M or left untreated as a control and cultured for 7 days. (A)”, “(E) Compound 1O also induces differentiation of human ESCs.” left out
as §3
ESCs were trypsinised (0.05% Trypsin-EDTA) for 10 minutes at 37° C. and resuspended in PBS containing 2% (v/v) FBS (FBS/PBS). […] Cells were washed and stained with secondary fluorescein isothiocyanate (FITC)-conjugated antibodies (SIGMA) for a further 30 minutes, if required. Flow cytometry was performed using a FACSCanto cytometer (Becton Dickenson) and the data were analysed with FACSDiva software. Dead cells were excluded for analyses based on forward and side scatter parameters.

[4] = system: ESCs [SHEF1]; test: RT-PCR of Activin/Nodal pathway and differentiation marker genes; type: cell-based, human; conditions: 10 μM with 2 μM 1M
Description: (§4) (A) RNA was extracted from ESCs [SHEF1] cultured for 7 days in the presence of 2 μM 1M for the days indicated. RT-PCR analyses were performed using primers selective for the genes indicated. (B) ESCs [SHEF1] were treated with 2 μM 1M alone or in combination with 10 μM SB43125 (S) for the days indicated and RT-PCR performed on the extracted RNA. (C) ESCs [SHEF3] were treated with 1M alone or in combination with 100 ng/ml Activin A (A) for the days indicated and RT-PCR performed. (D). ESCs [SHEF1] were treated with 2 μM 1M, or 100 ng/ml ActivinA (A) alone or in combination with 1M for 5 days. Expression of the endoderm markers FoxA2 and HNF4α was analysed by immunofluorescence. The number of percent positive cells averaged from 3 fields of view +/−SD are indicated. Scale bar represents 50 μm. (E) ESCs [SHEF1] were treated with 2 μM 1M, or 100 ng/ml ActivinA (A) alone or in combination with 1M for 5 days. Expression of the DE marker CXCR4 was alaysed by flow cytometry.
as §1

[5] = system: ESCs; test: as above; type: cell-based, human; conditions: 100 ng/ml Activin A with 1M, 7 days, SHEF3
Description: as §4, §1

[6] = system: ESCs [SHEF1]; test: Immunofluorescence of endoderm markers FoxA2 and HNF4α, percent positive cells; type: cell-based, human; conditions: 5 days
Description: as §4
ESCs were cultured on Matrigel®-coated lummox (Greiner Bio One) trays and fixed with 4% paraformaldehyde (PFA) for 20 minutes at room temperature. Cells were permeabilised in PBST (with 0.1% Triton X-100) and blocked in 10% blocking reagent (Roche) before incubating with primary antibodies in 2% blocking reagent overnight at 4° C. After washing in PBS, cells were incubated with FITC-conjugated secondary antibodies (Vector Labs) for 3 hours at room temperature. After further washing, the cells were stained with 4,6-diamidino-2-phenylindole (DAPI) (SIGMA), washed again and mounted in MOWIOL. The following antibodies and dilutions were used: goat-anti-FoxA2 (1:100, R&D. Systems), mouse anti-Sox17 (1:50, R&D Systems), rabbit anti-HNF4α (1:100, Santa Cruz), rabbit anti-AFP (1:100, DAKO), rabbit anti-TTR (1:100, DAKO). Images were captured on a Zeiss 510 Meta confocal microscope using a 40× objective.

[7] = system: ESCs [SHEF1]; test: Flow cytometry of the DE marker CXCR4; type: cell-based, human; conditions: 2 μM 1M, 100 ng/ml Activin A, alone or in combination, 5 days
Description: as §4
ESCs were trypsinised (0.05% Trypsin-EDTA) for 10 minutes at 37° C. and resuspended in PBS containing 2% (v/v) FBS (FBS/PBS). […] Flow cytometry was performed using a FACSCanto cytometer (Becton Dickenson) and the data were analysed with FACSDiva software. […]

[8] = MEF culture, concentration 0.5, 7 days
[9] = MEF culture, concentration 2, 7 days
[10] = mTeSR1, concentration 0.5, 7 days
[11] = mTeSR1, concentration 2, 7 days
[12] = 100 ng/ml Activin A with 2 μM 1M

O=C1NC(=O)C2=C1c1cn(c3ccccc13)CCOCCOCCOCCn1cc2c2ccccc21 [1L]
Differentiation towards the DE (immunostaining FOXA2, SOX17, HNF4α) [1]: induced differentiation towards the DE

O=C1NC(=O)C2=C1c1cn(c3ccccc13)CCCCC(O)CCCCn1cc2c2ccccc21 [1O]
OCT4 and NANOG gene expression (RT-PCR) ([2]; 7 days treatment): loss of OCT4 and NANOG gene expression
Oct4 protein expression (Western blot) ([2]; 7 days treatment): loss of OCT4 protein expression
Proliferation and differentiation of human ESCs (colony morphology) ([2]; 7 days, on MEFs in KO DMEM or on Matrigel in mTeSR1, 1M at 2 μM): induced similar differentiation
Expression of pluripotency markers Tra-1-60 and SSEA4 by flow cytometry (in words) ([3]; 7 days treatment): decreased expression of Tra-1-60 and SSEA4

O=C1Nc2cc(Br)ccc2/C1=C1/Nc2ccccc2/C1=N\O [BIO, reference compound]
Differentiation towards the DE (immunostaining FOXA2, SOX17, HNF4α) [1]: induced differentiation towards the DE
Tra1-60 % pos ([3]; MEF culture, concentration 0.5 (unit not given), 7 days): 82.2%
SSEA4 % pos [3, 8]: 91.3%
SSEA4 mean (mean fluorescence intensity) [3, 8]: 6002
Tra1-60 mean (mean fluorescence intensity) [3, 8]: 9497
Tra1-60 % pos ([3]; MEF culture, concentration 2 (unit not given), 7 days): 75.1%
SSEA4 % pos [3, 9]: 83.3%
SSEA4 mean (mean fluorescence intensity) [3, 9]: 4006
Tra1-60 mean (mean fluorescence intensity) [3, 9]: 7441
Tra1-60 % pos ([3]; mTeSR1 (feeder-free, Matrigel), concentration 0.5, 7 days): 73.7%
Tra1-60 % pos ([3]; mTeSR1 (feeder-free, Matrigel), concentration 2, 7 days): 40.5%
SSEA4 % pos [3, 10]: 69.2%
SSEA4 mean (mean fluorescence intensity) [3, 10]: 5871
Tra1-60 mean (mean fluorescence intensity) [3, 10]: 8194
SSEA4 % pos [3, 11]: 72.5%
SSEA4 mean (mean fluorescence intensity) [3, 11]: 1410
Tra1-60 mean (mean fluorescence intensity) [3, 11]: 890

NC(=O)c1ccc(-c2nc(-c3ccccn3)c(-c3ccc4c(c3)OCO4)[nH]2)cc1 [SB43125, reference compound]
Effect on 1M-induced GSC and FOXA2 expression [4]: dramatically reduced
Inhibition of 1M-induced NODAL expression [4]: only partially inhibited

B1: Activin A: member of the TGFβ superfamily which binds to the same receptors as Nodal, used to mimic Nodal activity in vitro (protein, UniProt P08476 311-426, looked up)
Inhibin beta A chain: GLECDGKVNICCKKQFFVSFKDIGWNDWIIAPSGYHANYCEGECPSHIAGTSGSSLSFHSTVINHYRMRGHSPFANLKSCCVPTKLRPMSMLYYDDGQNIIKKDIQNMIVEECGCS
modifications: Inhibin beta A chain homodimer
1M-induced expression of AFP in the presence of Activin A [5]: lost
Effect of Activin A on generation of 1M-induced HNF4α expressing cells [6, 12]: inhibit generation of 1M-induced HNF4α expressing cells
Effect of addition of Activin A on 1M-induced FoxA2 expression [6, 12]: did not further enhance
FOXA2 expressing cells in the entire population ([6]; 2 μM 1M or 100 ng/ml Activin A): 8%
HNF4α-expressing cells ([6]; 2 μM 1M or 100 ng/ml Activin A): 3%
CXCR4 expression by flow cytometry [7]: 26.5%

— patent US8815590B2, “Composition and method for differentiation of human embryonic stem cells” (Stem Cells for Safer Medicines Limited, priority 2009, dated 2014)
